Measurements published in paper PMC4790851, “Iminosugars Inhibit Dengue Virus Production via Inhibition of ER Alpha-Glucosidases—Not Glycolipid Processing Enzymes” (PLoS Neglected Tropical Diseases, 2016).
Entries after “also recorded” stand apart in the source; their conditions may differ.

Test system: DENV2 D2S10
Experiment: Lethal mouse model of antibody-enhanced DENV infection
Assay type: in vivo, AG129 mice
Conditions: 33.3 mg/kg/dose t.i.d. p.o.
Experimental: Virus titers of samples isolated from infected mice were obtained by BHK-21 plaque assays in accordance with previous protocols. BHK-21 cells were seeded in 12-well plates (3 x 10^5 cells/well) in α-MEM medium containing 5% HI-FBS for 3 hours (37°C, 5% CO2). Medium was removed, log10 serial dilutions of virus in α-MEM with 2% HI-FBS were added, and cells were incubated for an additional 2 hours (37°C, 5% CO2). Following incubation, 1.5 ml of α-MEM containing 5% (v/v) HI-FBS and 1% (w/v) low-melting point tissue culture grade agarose (Sigma) was added to each well and allowed to solidify at room temperature before further incubation (37°C, 5% CO2) for 5 days. Plaques were visualised after fixation in 10% formaldehyde (1 hour, room temperature) and removal of the agarose plug by staining briefly (approximately 30 seconds) with 1% (w/v) crystal violet (Sigma) in 20% (v/v) ethanol (EtOH, Sigma). Concentrations were normalised to tissue mass (in grams) or serum volume (in ml) as appropriate.
For animal experiments, multiplex qRT-PCR was conducted on all tissue isolates and plasma as described for in vitro experiments. Rodent glyceraldehyde 3-phosphate dehydrogenase (GAPDH) control (Life Technologies #4308313) containing a VIC reporter dye was attached to a TAMRA (tetramethylrhodamine) quencher, and experimental DENV NS5-specific target was labelled with FAM (6-fluorescein amidite) reporter dyes with a TAMRA quencher. GAPDH primers were used at 10 μM and probe at 20 μM. In the case of DENV qRT-PCR, quantitation using a DENV2-specific primer/probe set directed to NS5 was conducted using all primers and probe at 10 μM final concentration. Thermocycling was conducted as for in vitro experiments. Viral RNA from tissues was quantified by ΔΔCt method, whereas plasma samples were quantified relative to a standard curve as for in vitro experiments. Samples were read in technical duplicate and 95% confidence intervals were determined based on biological and technical variation and graphed using Prism 6 (GraphPad Software, Inc.).
All experimental procedures were pre-approved by the UC Berkeley Animal Care and Use Committee and were performed according to the guidelines of the UC Berkeley Animal Care and Use Committee, the United States Public Health Service, and the USDA Animal Welfare Act. Mice of the 129/Sv background deficient in interferon (IFN)-α/β and -γ receptors (AG129 mice) were infected with DENV under antibody-enhanced conditions as previously described. Mice were primed 24 hours prior to infection with a 5 μg intraperitoneal (i.p.) injection of a pan-flavivirus monoclonal antibody against E protein, 4G2. At t = 0, 10^5 pfu of DENV2 D2S10 was injected intravenously. […]

[1] = serum at 80 h post-infection, AG129 mice, listed as celgosivir

CCCC(=O)O[C@H]1CN2CC[C@H](O)[C@@H]2[C@@H](O)[C@@H]1O [Celgosivir, 6-O-butanoyl-castanospermine]
viral RNA levels in spleen (80 h post-infection, qRT-PCR normalized to GAPDH): enhanced viral RNA levels by approximately two orders of magnitude | infectious virus level in serum (BHK-21 plaque assay) (serum at 80 h post-infection, AG129 mice): reduced the average viral titer, but the differences were not statistically significant | circulating viral load (viral RNA, qRT-PCR) [1]: significantly reduced; also recorded: statistically significant reduction in viral RNA load | infectious virus level in serum (BHK-21 plaque assay) [1]: not statistically significant
